In US20240148900A1, “IMMUNOSTIMULATORY CYCLIC DI-NUCLEOTIDE DELIVERY SYSTEM COMPOSITIONS AND METHOD OF USE THEREOF” (VIRGINIA COMMONWEALTH UNIVERSITY, priority 2021, published 2024):

Legend:
[1] = Stability of CDG in 10% FBS-supplemented cell culture medium; type: in vitro ADME; settings: 7 days in cell culture medium with 10% serum, 37° C., absorption at 254 nm
Excerpt: FIG. 1A-H. Characterization of STING-NVs. (a) UV-vis absorbance spectra of PEG-b-PLA NPs, 5c-i-motif DNA, and 5c-NPs. […] Lane legends: 1: 25 bp DNA ladder; 2: 9C-i-motif; 3: 3C-NPs; 4: 5C-NPs; 5: 7C-NPs; 6: 9C-NPs. (c) DLS graphs showing the hydrodynamic diameters of 5C-NPs (79±34 nm, PDI 0.157) and STING-NVs (81±32 nm, PDI 0.131). (d) A TEM image of STING-NVs. (e) Zeta potential of blank NPs, CDG-loaded NPs, and Lipo-CDG. STING-NVs: CDG-loaded 5C-NPs. (f) Stability of free CDG and CDG loaded in STING-NVs over 7-day incubation in 10% FBS-supplemented cell culture medium (37° C.). A254nm: 254 nm absorption from CDG; A560nm: 560 nm absorption from medium as an internal reference. (g, h) MST traces (g) and fitting curve (h) of the kinetic interaction between 5C-NPs and CDG at pH 7.4. Data represent mean±standard deviation (SD) (n=3).
The ability of STING-NVs to promote the biostability of CDG is presumably due to the steric hindrance of i-motif-NPs that prevent the access of nucleases. Using HPLC and microscale thermophoresis (MST), we further studied the binding of CDG with 5C-i-motifs, which is the basis for CDG loading into i-motif-modified NPs. In HPLC, relative to free CDG and 5C-i-motif, the delayed elution time of physically mixed CDG and 5C-i-motif indicated the complexation of CDG and 5C-i-motif (FIG. 10). […]

[2] = tested on: RAW264.7 macrophages; experiment: Cell uptake of FluoCDG by flow cytometry; type: cell-based, murine; settings: FluoCDG 0.5 μg/mL; free CDG over 2 h, formulations 0.5 h post incubation
Protocol: CDG release from STING-NVs. First, STING-NVs were dispersed in 1 mL of 1×PBS at different pH and agitated at 200 rpm. Then the mixture was ultra-filtrated at each hour point. The filtrate was taken for CDG detection, and the same volume of fresh buffer was added back to the residual mixture. The amount of released CDG in the filtrate was determined by measuring the absorption at 254 nm using a UV-Vis spectrometer. Lipo-CDG Synthesis. DOTAP, cholesterol, and DSPE-PEG(2000) were purchased from Avanti Polar Lipids. Lipids were mixed at molar ratios of 1:1:0.2 DOTAP:cholesterol:DSPE-PEG(2000). Lipid mixtures were dried under a nitrogen stream in glass test tubes. The resulting lipid films were placed in a desiccation system overnight. […] The CDG content of the liposomes was determined by measuring the absorbance peak of the liposomes at 254 nm, corresponding to the maximum absorbance of CDG, subtracting the lipid contribution to absorbance at this wavelength. […] Secreted IFN-α was quantified with the LumiKine Xpress mIFN-α enzyme-linked immunosorbent assay kit (InvivoGen). Secreted IL-6 and IL-12 were quantified with the Mouse IL-6 Quantikine™ ELISA Kit (R&D Systems). […] Cells were analyzed for fluorescein signal (from fluorescein-modified CDG) on the CytoFLEX LX (Beckman Coulter) flow cytometer.

- intact CDG [1]: 2.3%
Structure (SMILES): Nc1nc2c(ncn2[C@@H]2O[C@@H]3COP(=O)(O)O[C@H]4[C@@H](O)[C@H](n5cnc6c(=O)[nH]c(N)nc65)O[C@@H]4COP(=O)(O)O[C@H]3[C@H]2O)c(=O)[nH]1 [free CDG, cyclic dimeric guanosine monophosphate]
- FluoCDG fluorescence signal enhancement [2]: only slight FluoCDG signal enhancement
